Reference: patent US10919896B2, “Preparation and uses of pyrimidinone derivatives” (Cancer Research Technology Limited, priority 2016, dated 2021)

Key:
[1] = system: Cdc7 (pS40MCM2 levels in HCT116 cells); assay: Cdc7 Cell Pharmacodynamics Assay Method 2A: pS40MCM2 levels in HCT116 cells, 6 hours; format: cell-based; conditions: Homo sapiens, HCT-116, read-out: Biomarker Method 2A (pEC50) (converted)
Excerpt: (§1) This protocol describes a method to investigate the inhibition of Cdc7 activity by measuring pS40MCM2 levels in cells, after treatment with compounds.
(§2) • HCT116 cells (ATCC, #CCL-247) • McCoys 5A with L-glutamine (Cellgro, #10-050-CV) • 10% FCS (Cellgro, #35-010-CV) • D-PBS without CaCl2 and MgCl2 (Cellgro, #21-031-CV) • Trypsin/EDTA (Cellgro, #25-052-CL) • BSA (Calbiochem, 126593) • Cell Extraction Buffer (Invitrogen FNN0011) • Protease inhibitor cocktail (Sigma P-2714) • PMSF 0.3M stock in DMSO (Sigma P7626) • Antibody-rabbit pMCM2 Ser40 (Abcam, AB133243) • Antibody-goat MCM2 (Bethyl #A300-122A) • Antibody-goat Anti Rabbit IgG HRP (Thermo, 31462) • SuperSignal ELISA Pico Chemiluminescent Substrate (Perbio Science UK Ltd 37069) • 10×PBS (Growcells, MRGF-6236) • Triton X100 (Sigma, P-T8787) • DMSO (Fisher, D128-1) • 2-Propanol (J. T. Baker, 9095-03) Method • Seed 1×10^6 HCT116 cells into each of two 175 cm^2 flask containing 30 mL Cell Growth Media and incubate at 37° C., 5% CO2 for 3 days. • Harvest the cells from one T175 cm^2 flask and count. • Dilute with Cell Growth Media to a cell density of 2×10^5. Dispense 100 μL to each well (20,000 HCT116 cells/well) of TC treated 96-well plate(s). • Allow cells to settle overnight in incubator set at 37° C. and 5% CO2. • Cell treatment: Transfer 0.25 μL/well from the compound plate to the wells of the cell plate(s). This is a 1:400 dilution of compound in the assay. • Once all cells are treated place the cells back to the incubator and incubate for either 6 hours (Method 2A) or 18 hours (Method 2B). • Dilute the capture antibody (total MCM2#A300-122A) 1 in 250 in the required volume of PBS (5 mL per assay plate, plus 5 mL for dead volume) and add 50 μL to each well of a Hybond plate except wells A12 & B12. Seal the plate and incubate at room temperature for a minimum of 2 hours. • Defrost aliquot of Invitrogen Cell Extraction Buffer (FNN0011) on ice and supplement with appropriate volume of both Sigma protease inhibitor cocktail (P-2714) and PMSF (final conc 1 mM from a 1 M stock in DMSO). • After the 6 hour or 18 hour cell treatment time, tap out the media from the assay plates and place them in the −70° C. freezer for at least 5 minutes. • Flick out the remaining liquid in the previously prepared capture Ab plate(s) and add 200 μL 2% BSA per well. Incubate for 1 hour at room temperature. • Remove plates from freezer and add 20 μL of ice cold complete lysis buffer. Incubate cells for 30 minutes at 4° C. • Add 30 μL per well 2% BSA • At the end of the 1 hour incubation, wash the Capture/ELISA plate(s) with Wash Buffer on the BioTek plate washer. • Transfer 40 μL per well of the lysis plate(s) to the same wells in the Capture/ELISA plate. Incubate cells overnight at 4° C. • At the end of the overnight incubation, wash the ELISA plate(s) with Wash Buffer on BioTek plate washer. • Prepare Detection Antibody Buffer and dispense 50 μL to all wells of ELISA plate(s) except wells G1 & H1. Cover plate and incubate at room temperature for 2 hours with gentle shaking. • At the end of the 2 hour incubation, wash the ELISA plate(s) with Wash Buffer on the BioTek plate washer. • Prepare the Conjugated Antibody Buffer and dispense 50 μL to all wells of ELISA plate(s). • Cover the plate and incubate at room temperature for 1 hour with gentle shaking. • At the end of the 1 hour incubation, wash the ELISA plate(s) with Wash Buffer on the BioTek plate washer. • Prepare Substrate Buffer and dispense 50 μL to all wells of ELISA plate(s). • Incubate for a minimum of 10 minutes and read plates on the EnVision 2100 Multilabel Reader (Mirror: Luminescence (404) & Luminescence 700 (212); Measurement Height: 6.5 mm; Measurement Time: 0.2 s). Method 3

Cdc7/Dbf4 = Cdc7/Dbf4 (Homo sapiens, UniProt O00311); assay: Cdc7 Biochemical Assay Method 3: Cdc7/Dbf4 Enzyme TR-FRET Assay measuring pS40MCM2; conditions: 1 μM ATP, read-out: Biochemical Method 3 (pIC50) (converted)
Cdc7/Dbf4, sequence (O00311 whole entry): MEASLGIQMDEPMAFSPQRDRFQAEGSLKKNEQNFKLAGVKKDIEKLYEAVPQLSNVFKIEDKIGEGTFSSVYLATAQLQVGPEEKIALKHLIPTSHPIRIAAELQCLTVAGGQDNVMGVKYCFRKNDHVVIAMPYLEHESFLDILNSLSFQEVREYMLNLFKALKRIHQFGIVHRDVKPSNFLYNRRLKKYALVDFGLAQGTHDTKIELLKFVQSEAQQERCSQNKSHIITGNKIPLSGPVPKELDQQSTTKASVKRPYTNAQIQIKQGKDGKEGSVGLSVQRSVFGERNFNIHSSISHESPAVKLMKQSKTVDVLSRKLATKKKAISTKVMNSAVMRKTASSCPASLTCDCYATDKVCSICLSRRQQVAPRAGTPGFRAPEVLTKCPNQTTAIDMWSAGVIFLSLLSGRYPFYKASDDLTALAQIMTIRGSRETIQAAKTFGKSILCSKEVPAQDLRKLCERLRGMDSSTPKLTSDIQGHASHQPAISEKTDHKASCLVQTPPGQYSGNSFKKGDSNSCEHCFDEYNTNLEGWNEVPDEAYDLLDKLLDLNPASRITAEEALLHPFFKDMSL
Cdc7/Dbf4, sequence (Q9UBU7 whole entry partner): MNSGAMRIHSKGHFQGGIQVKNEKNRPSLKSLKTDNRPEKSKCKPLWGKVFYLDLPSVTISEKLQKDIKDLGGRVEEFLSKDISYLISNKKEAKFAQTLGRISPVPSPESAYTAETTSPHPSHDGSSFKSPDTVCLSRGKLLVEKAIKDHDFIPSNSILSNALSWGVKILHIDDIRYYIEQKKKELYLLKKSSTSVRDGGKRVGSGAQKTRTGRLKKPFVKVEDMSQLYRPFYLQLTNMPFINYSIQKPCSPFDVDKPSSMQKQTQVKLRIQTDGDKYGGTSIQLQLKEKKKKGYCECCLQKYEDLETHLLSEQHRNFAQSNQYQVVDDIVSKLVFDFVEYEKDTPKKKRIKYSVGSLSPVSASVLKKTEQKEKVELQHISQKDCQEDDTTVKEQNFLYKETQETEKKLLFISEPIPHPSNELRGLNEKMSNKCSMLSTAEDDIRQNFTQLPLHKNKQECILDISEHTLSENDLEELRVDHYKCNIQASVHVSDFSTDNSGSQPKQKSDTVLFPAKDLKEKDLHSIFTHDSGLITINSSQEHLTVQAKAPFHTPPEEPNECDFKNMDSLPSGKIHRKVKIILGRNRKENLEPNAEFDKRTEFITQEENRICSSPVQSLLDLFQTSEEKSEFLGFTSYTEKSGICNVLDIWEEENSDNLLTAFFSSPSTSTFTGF
How it was run: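 TR-FRET read-out (terbium anti-rabbit donor, streptavidin-Alexa Fluor488 acceptor, anti-Mcm2 pS40 antibody) of peptide phosphorylation after 120 min at 25° C; reaction held 1 μM ATP, 100 nM biotin-tagged peptide substrate and 2.5 nM enzyme complex.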

[2] = system: Cdc7 (pS40MCM2 levels in HCT116 cells); assay: Cdc7 Cell Pharmacodynamics Assay Method 2B: pS40MCM2 levels in HCT116 cells, 18 hours; format: cell-based; conditions: Homo sapiens, HCT-116, read-out: Biomarker Method 2B (pEC50) (converted)
Excerpt: as §1, §2

[3] = system: Cdc7 (pS53MCM2 levels in SW48 cells); assay: Cdc7 Cell Pharmacodynamics Assay Method 3: pS53MCM2 levels in SW48 cells, 6 hours; format: cell-based; conditions: Homo sapiens, SW48, 6 h, read-out: Biomarker Method 3 (pEC50) (converted)
Excerpt: This protocol describes a method to investigate the inhibition of Cdc7 activity by measuring pS53MCM2 levels in cells, after treatment with compounds.
• SW48 cells • RPMI 1640 (Sigma, R5886) • 10% FCS (Sera Laboratories International Ltd, EU000F Batch:108005) • 100× L-Glutamine (Invitrogen, 25030-024) • D-Glucose Solution (10%) (Sigma, G8644) • HEPES Buffer Solution (Sigma, 83264) • Sodium Pyruvate (Sigma, S8636) • PBS (Fisger, BP399-4) • Trypsin/EDTA (Invitrogen 25300-054) • 2% BSA in PBS • Cell Extraction Buffer (Invitrogen FNN0011) • Protease inhibitor cocktail (Sigma P-2714) • PMSF 0.3M stock in DMSO (Sigma P7626) • Antibody-rabbit pMCM2 Ser53 (Bethyl #A300-756A) • Antibody-goat MCM2 (Bethyl #A300-122A) • Antibody-goat Anti Rabbit IgG HRP (Perbio Science UK Ltd 31462) • SuperSignal ELISA Pico Chemiluminescent Substrate (Perbio Science UK Ltd 37070) Method • Plate 30,000 SW48 cells per well in standard TC treated 96 well plate in 100 μL complete RPMI 1640 medium. • Allow cells to settle overnight in incubator set at 37° C. and 5% CO2. • Cell treatment: prepare a 384 well plate containing 80 μl PBS/well. The PBS should be at room temperature—to be referred to as intermediate plate. Transfer 2 μL of compound from mother plate to intermediate (daughter plate) 1:40 dilution, then 5 μL intermediate to cell (daughter) plate. • Once all cells are treated place the cells back to the incubator and incubate for 6 hours. • Dilute the capture antibody (total MCM2#A300-122A) 1 in 250 in the required volume of PBS (5 mL per assay plate, plus 5 mL for dead volume) and add 50 μL to each well of a Hybond plate. Seal the plate and incubate at room temperature for a minimum of 2 hours. • Defrost aliquot of Invitrogen Cell Extraction Buffer (FNN0011) on ice and supplement with appropriate volume of both Sigma protease inhibitor cocktail (P-2714) and PMSF (final conc 1 mM from a 1 M stock in DMSO). • After the 6 hour cell treatment time, tap out the media from the assay plates and place them in the −80° C. freezer for at least 5 minutes. • Remove plates from freezer and add 20 μL of ice cold complete lysis buffer, with the multidrop. Incubate cells for 30 minutes at 4° C. • Add 80 μL per well 2% BSA. • Flick out the remaining liquid from the capture plate and transfer 80 μL from the lysis plate to the same wells in the capture/ELISA plate, using the Biomek. Cover with plate seal and incubate plates overnight at 4° C. • Wash plates with PBS, remove any residual remaining liquid and add 50 μL per well of pMCM2 Ser53 antibody (#A300-756A) diluted 1 in 100 in 2% BSA. Cover plate and incubate at room temperature for 2 hours with gentle shaking. • Wash plates with PBS, remove any residual remaining liquid and Incubate with 50 μL goat anti rabbit antibody (1 in 800 dilution in 2% BSA), for 1 hour at room temperature. • Wash plates with PBS, remove any residual remaining liquid and add 50 μL mixed SuperSignal Pico substrate. • Incubate each plate for 5 minutes at room temperature shielding the plates from direct light (with a cover plate). Read plates with the luminescent detection.

## CN[C@@H]1CCCN(c2nc(-c3ccnc(F)c3)[nH]c(=O)c2Cl)C1 [Compound 196]
[1]
  EC50: 72.4 nM
Cdc7/Dbf4
  IC50: 1.91 nM

## CC[C@@H]1CN(c2nc(-c3ccnc(F)c3)[nH]c(=O)c2Cl)CCO1 [Compound 205]
[1]
  EC50: 275 nM
Cdc7/Dbf4
  IC50: 1.41 nM

## O=c1[nH]c(-c2ccnc(F)c2)nc(N2C3CCC2COC3)c1Cl [Compound 192]
[2]
  EC50: 49 nM
[1]
  EC50: 89.1 nM
Cdc7/Dbf4
  IC50: 0.813 nM

## O=c1[nH]c(-c2ccnc(F)c2)nc(N2CCOCC(F)(F)C2)c1Cl [Compound 286]
[2]
  EC50: 15.5 nM
[3]
  EC50: 513 nM
Cdc7/Dbf4
  IC50: 0.229 nM

## O=c1[nH]c(-c2ccnc(F)c2)nc(N2CCCNCC2)c1Cl [Compound 206]
[2]
  EC50: 39.8 nM
[3]
  EC50: 562 nM
Cdc7/Dbf4
  IC50: 0.0977 nM

## O=c1[nH]c(-c2ccnc(F)c2)nc(N2CCC3NCCCC32)c1Cl (stereo not shown) [Compound 223]
[2]
  EC50: 47.9 nM
[1]
  EC50: 56.2 nM
Cdc7/Dbf4
  IC50: 2.88 nM

## O=C1CCN(c2nc(-c3ccnc(F)c3)[nH]c(=O)c2Cl)CC1 [Compound 234]
[1]
  EC50: 38.9 nM
Cdc7/Dbf4
  IC50: 1.38 nM

## CC1(C)CNCCN1c1nc(-c2ccnc(F)c2)[nH]c(=O)c1Cl [Compound 358]
[2]
  EC50: 2.45 nM
[3]
  EC50: 89.1 nM
Cdc7/Dbf4
  IC50: 1.15 nM

## N[C@@H]1CCCCN(c2nc(-c3ccnc(F)c3)[nH]c(=O)c2Cl)C1 [Compound 183, 4-[(3R)-3-aminoazepan-1-yl]-5-chloro-2-(2-fluoro-4-pyridyl)-1H-pyrimidin-6-one 2,2,2-trifluoroacetic acid]
[1]
  EC50: 148 nM
Cdc7/Dbf4
  IC50: 0.513 nM

## O=c1[nH]c(-c2ccnc(F)c2)nc(N2CCC3NCCC32)c1Cl (stereo not shown) [Compound 243]
[1]
  EC50: 288 nM
Cdc7/Dbf4
  IC50: 2 nM

## C[C@H]1CNCCN1c1nc(-c2ccnc(F)c2)[nH]c(=O)c1Cl [Compound 326]
[1]
  EC50: 40.7 nM
Cdc7/Dbf4
  IC50: 0.49 nM

## N[C@H]1CCCCN(c2nc(-c3ccnc(F)c3)[nH]c(=O)c2Cl)C1 [Compound 188]
[1]
  EC50: 170 nM
Cdc7/Dbf4
  IC50: 1.74 nM

## NC1CN(c2nc(-c3ccnc(F)c3)[nH]c(=O)c2Cl)CCC1F (mixture of isomers) [Compound 252]
[1]
  EC50: 38 nM
Cdc7/Dbf4
  IC50: 0.617 nM

## O=C1CNCCN(c2nc(-c3ccnc(F)c3)[nH]c(=O)c2Cl)C1 [Compound 412, 1-[5-chloro-2-(2-fluoro-4-pyridyl)-6-oxo-1H-pyrimidin-4-yl]-1,4-diazepan-6-one 2,2,2-trifluoroacetic acid]
[1]
  EC50: 339 nM
Cdc7/Dbf4
  IC50: 0.646 nM

## CC1(C)COCCN1c1nc(-c2ccnc(F)c2)[nH]c(=O)c1Cl [Compound 339]
[2]
  EC50: 10.7 nM
[3]
  EC50: 110 nM
Cdc7/Dbf4
  IC50: 0.479 nM

## C[C@@H]1COCCN1c1nc(-c2ccnc(F)c2)[nH]c(=O)c1Cl [Compound 328]
[1]
  EC50: 3.89 nM
Cdc7/Dbf4
  IC50: 0.575 nM

## O=c1[nH]c(-c2ccnc(F)c2)nc(N2C3CCC2CNC3)c1Cl [Compound 262]
[2]
  EC50: 19.5 nM
[3]
  EC50: 347 nM
Cdc7/Dbf4
  IC50: 0.851 nM

## CC(=O)NC1CCN(c2nc(-c3ccnc(F)c3)[nH]c(=O)c2Cl)CC1 [Compound 232]
[2]
  EC50: 977 nM
[1]
  EC50: 2000 nM
Cdc7/Dbf4
  IC50: 1.02 nM

## O=C1CCCN(c2nc(-c3ccnc(F)c3)[nH]c(=O)c2Cl)CC1 [Compound 203]
[1]
  EC50: 363 nM
Cdc7/Dbf4
  IC50: 2.95 nM

## O=c1[nH]c(-c2ccnc(F)c2)nc(N2C3CCCC2COC3)c1Cl [Compound 334]
[2]
  EC50: 61.7 nM
[1]
  EC50: 135 nM
Cdc7/Dbf4
  IC50: 0.724 nM

## C[C@H]1COCCN1c1nc(-c2ccnc(F)c2)[nH]c(=O)c1Cl [Compound 333]
[2]
  EC50: 87.1 nM
[1]
  EC50: 347 nM
Cdc7/Dbf4
  IC50: 1.23 nM

## C[C@@H]1CCCN1c1nc(-c2ccnc(F)c2)[nH]c(=O)c1Cl [Compound 279]
[2]
  EC50: 57.5 nM
[3]
  EC50: 1320 nM
Cdc7/Dbf4
  IC50: 0.724 nM

## C[C@H]1CN[C@@H](C(F)(F)F)CN1c1nc(-c2ccnc(F)c2)[nH]c(=O)c1Cl (racemic) [Compound 378, Cis-5-chloro-2-(2-fluoro-4-pyridyl)-4-[2-methyl-5-(trifluoromethyl)piperazin-1-yl]-1H-pyrimidin-6-one]
[2]
  EC50: 437 nM
[3]
  EC50: 2090 nM
Cdc7/Dbf4
  IC50: 5.89 nM

## CN[C@H]1CCCN(c2nc(-c3ccnc(F)c3)[nH]c(=O)c2Cl)C1 [Compound 197]
[1]
  EC50: 316 nM
Cdc7/Dbf4
  IC50: 2.4 nM

## N[C@@H]1CN(c2nc(-c3ccnc(F)c3)[nH]c(=O)c2Cl)CC[C@H]1O [Compound 235]
[1]
  EC50: 1120 nM
Cdc7/Dbf4
  IC50: 1.2 nM

## O=c1[nH]c(-c2ccnc(F)c2)nc(N2CCNCC(O)C2)c1Cl (stereo not shown) [Compound 190]
[1]
  EC50: 741 nM
Cdc7/Dbf4
  IC50: 0.708 nM
